Here are results for 7 compounds from ChEMBL document CHEMBL1201861, “Genomics of Drug Sensitity in Cancer screening data, Wellcome Trust Sanger Institute”.

The subject of assay [1] is EW-12. The assay can be described thus: SANGER: Inhibition of human EW-12 cell growth in a cell viability assay. The format is functional, cell-based.
Assay [2] relates to KP-N-RT-BM-1. Put plainly: SANGER: Inhibition of human KP-N-RT-BM-1 cell growth in a cell viability assay. It counts as functional, cell-based.
For assay [3], the system named is L-540. The assay can be described thus: cells. The format is functional, cell-based, Homo sapiens. To be noted: Homo sapiens, L-540.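 Also: growth inhibition of the human L-540 cell line, read out with a viability assay.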
Description: SANGER: Inhibition of human L-540 cell growth in a cell viability assay.
Assay [4] concerns LOUCY. Put plainly: cells. It counts as functional, cell-based, Homo sapiens. To be noted: Homo sapiens, LOUCY.
Description: SANGER: Inhibition of human LOUCY cell growth in a cell viability assay.
In assay [5] the test system is NCI-H1882. The assay can be described thus: cells. It counts as functional, cell-based, Homo sapiens. Conditions: Homo sapiens, NCI-H1882.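 Also: growth inhibition of the cell line, determined with a viability assay.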
Description: SANGER: Inhibition of human NCI-H1882 cell growth in a cell viability assay.
Assay [6] deals with NCI-H345. The assay can be described thus: cells. The format is functional, cell-based, Homo sapiens. To be noted: Homo sapiens, NCI-H345.
Description: SANGER: Inhibition of human NCI-H345 cell growth in a cell viability assay.
Assay [7] concerns NCI-H889. Put plainly: cells. It counts as functional, cell-based, Homo sapiens. To be noted: Homo sapiens, NCI-H889.
Description: SANGER: Inhibition of human NCI-H889 cell growth in a cell viability assay.
In assay [8] the test system is SNU-16. Put plainly: cells. It counts as functional, cell-based, Homo sapiens. Conditions: Homo sapiens, SNU-16.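 Also: growth inhibition of human SNU-16 cells, determined with a cell viability readout.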
Description: SANGER: Inhibition of human NCI-SNU-16 cell growth in a cell viability assay.
In assay [9] the test system is OPM-2. Put plainly: cells. The format is functional, cell-based, Homo sapiens. To be noted: Homo sapiens, OPM-2.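 Also: growth of OPM-2 cells measured with a viability assay, IC50 for suppression of proliferation.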
Description: SANGER: Inhibition of human OPM-2 cell growth in a cell viability assay.
Assay [10] relates to REH. The assay can be described thus: cells. The format is functional, cell-based, Homo sapiens. To be noted: Homo sapiens, REH.
Description: SANGER: Inhibition of human REH cell growth in a cell viability assay.
Assay [11] deals with RPMI 8402. Put plainly: SANGER: Inhibition of human RPMI-8402 cell growth in a cell viability assay. To be noted: Homo sapiens, RPMI 8402; read-out: IC50. The format is functional, cell-based.
The test system of assay [12] is SKM-1. The assay can be described thus: SANGER: Inhibition of human SKM-1 cell growth in a cell viability assay. The format is functional, cell-based.
For assay [13], the system named is TALL-1. Put plainly: cells. Conditions: Homo sapiens, TALL-1. It counts as functional, cell-based, Homo sapiens.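 Also: growth inhibition of cultured human TALL-1 cells, read out by a cell viability assay.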
Description: SANGER: Inhibition of human TALL-1 cell growth in a cell viability assay.
The test system of assay [14] is CHP-126. The assay can be described thus: cells. To be noted: Homo sapiens, CHP-126. The format is functional, cell-based, Homo sapiens.
Description: SANGER: Inhibition of human CHP-126 cell growth in a cell viability assay.

With `COc1cc2ncn(-c3cc(OCc4ccccc4C(F)(F)F)c(C(N)=O)s3)c2cc1OC` [GW843682X], the IC50 is more than 256 nM in assay [1]; 131 nM in [2]; 121 nM in assay [3]; 15.9 nM in assay [4]; 43.7 nM in [5]; more than 256 nM in [6]. Also, the IC50 in assay [7] is 92.4 nM; in [8], 20.5 nM; in assay [9], 44.2 nM; in assay [10], more than 256 nM; in assay [11] it was 4.67 nM; in assay [12], more than 256 nM. Moreover, the figures for the IC50 in assay [13] and in [14] were 13 nM and more than 256 nM, respectively.

Turning to `N[C@@H](CSC(c1ccccc1)(c1ccccc1)c1ccccc1)C(=O)O` [S-TRITYL-L-CYSTEINE], the IC50 was more than 5120 nM in assay [1]; more than 5120 nM in assay [2]; more than 5120 nM in assay [3]; 480 nM in assay [4]; 2080 nM in assay [5]; more than 5120 nM in assay [6]. Besides, the 50% inhibitory concentration (IC50) is more than 5120 nM in [7]; more than 5120 nM in [8]; 3290 nM in [9]; more than 5120 nM in assay [10]; 1280 nM in assay [11]; more than 5120 nM in assay [12]. Moreover, the IC50 in [13] was 2530 nM; in assay [14] it was more than 5120 nM.

Take `Cc1ccc(-c2c(C(=O)CCl)n(CCCO)c3ncnc(N)c23)cc1`: the IC50 was more than 4000 nM in assay [1]; 2510 nM in assay [2]; more than 4000 nM in assay [3]; more than 4000 nM in assay [4]; more than 4000 nM in [5]; more than 4000 nM in [6]. In addition, the IC50 in assay [7], in assay [8], in [9], in [10], in [11] and in assay [12] was more than 4000 nM each time. The IC50 in assay [13] and in [14] was more than 4000 nM throughout.

On to `CC(=O)O[C@H]1C(=O)[C@@]2(C)[C@H]([C@H](OC(=O)c3ccccc3)[C@]3(O)C[C@H](OC(=O)[C@H](O)[C@@H](NC(=O)c4ccccc4)c4ccccc4)C(C)=C1C3(C)C)[C@]1(OC(C)=O)CO[C@@H]1C[C@@H]2O` [PACLITAXEL], for which the IC50 is more than 102 nM in [1]; more than 102 nM in [2]; 46.4 nM in assay [3]; 7.75 nM in assay [4]; 64.2 nM in [5]; more than 102 nM in assay [6]. Besides, the IC50 in assay [7] is 55.9 nM; in assay [8] it was 10.1 nM; in assay [9], 36.7 nM; in assay [10], more than 102 nM; in assay [11] it was 12.6 nM; in assay [12] it was more than 102 nM. Also, the IC50 in assay [13] was 50.4 nM; in assay [14], more than 102 nM.

For `COc1cc(-c2nn([C@H]3CC[C@H](N4CCN(C(C)=O)CC4)CC3)c3ncnc(N)c23)ccc1NC(=O)c1cc2ccccc2n1C`, the 50% inhibitory concentration (IC50) in [1], in [2], in [3], in assay [4], in [5] and in [6] was more than 5120 nM in each case. Besides, the IC50 in assay [7], in [8], in [9], in [10], in assay [11] and in assay [12] was more than 5120 nM throughout. The IC50 in assay [13] and in [14] was more than 5120 nM each time.

For `CCN(CC)CCNC(=O)c1c(C)[nH]c(/C=C2\C(=O)Nc3ccc(F)cc32)c1C` [SUNITINIB], the IC50 in assay [1], in assay [2], in assay [3], in assay [4], in assay [5] and in [6] was more than 8000 nM each time. Further, the IC50 is more than 8000 nM in [7]; 1460 nM in [8]; 3060 nM in assay [9]; more than 8000 nM in [10]; 2340 nM in assay [11]; more than 8000 nM in assay [12]. Also, the IC50 in assay [13] and in assay [14] was more than 8000 nM throughout.

Regarding `OCCCNc1cc(-c2ccnc(Nc3cccc(Cl)c3)n2)ccn1`, the IC50 in assay [1] was more than 256 nM; in assay [2], 148 nM; in assay [3], 193 nM; in assay [4], 62.2 nM; in assay [5] it was more than 256 nM; in [6] it was more than 256 nM. Besides, the IC50 in assay [7] is more than 256 nM; in assay [8], 136 nM; in assay [9] it was 153 nM; in [10], more than 256 nM; in [11], 70.9 nM; in [12] it was more than 256 nM. In addition, the IC50 is 94.1 nM in assay [13] and 135 nM in assay [14].
